{
  "source": "patent US11013696B2",
  "about": "“Lipids and lipid compositions for the delivery of active agents” (Novartis AG, priority 2013, dated 2021)",
  "key": {"[1]": {"test": "Particle size and polydispersity by DLS of RSV-F replicon LNPs", "assay_type": "physicochemical", "protocol": "A self-replicating replicon encoding RSV F protein was administered to BALB/c mice, 8 animals per group, by bilateral intramuscular vaccinations (50 μL per leg) on days 0 and 21 with the replicon (0.1 and 1 ng) formulated as liposomes with the lipids described below. All liposomes tested were composed of 40% cationic lipid, 10% DSPC, 48% cholesterol and 2% PEG-DMG with similar amounts of RNA. The liposomes were all prepared using the same technique as described above.\n% entrapment (% E), Concentration of RNA (Conc), particle size measured by DLS, and polydispersity reported by DLS of LNPs prepared with different cationic lipids"}, "[2]": {"system": "human leptin", "test": "Human leptin in mouse plasma (ELISA) after IV tail vein injection of encapsulated leptin mRNA", "assay_type": "in vivo", "settings": "hLeptin", "protocol": "Human leptin in mouse plasma was measured by ELISA. Antibodies purchased from the R&D Systems duoset (Cat #DY398E, part #840279 for capture antibody and part #840280 for detection antibody) were reconstituted using PBS and titered, again using PBS. The capture antibody was coated at 4 ug/ml in 30 ul/well on a white Nunc® Maxisorp 384 well plate (Cat #460372). After an overnight incubation at room temperature the capture antibody was aspirated and the plate blocked for 2 hours at room temperature with 90 ul/well of KPL milk blocker (Cat #50-82-00). Once the incubation was completed the plate was aspirated and recombinant standards and samples were added to the plate at 30 ul/well for 2 hours at 37° C. while shaking at 600 rpm. Sample/standard dilutions were made using casein sample diluent. Washing/aspiration 3 times with 100 ul/well followed, using Teknova plate wash solution (Cat #P1192). Next, detection antibody was diluted using casein detection antibody diluent to 12.5 ng/ml and added at 30 ul/well for 2 hours room temperature. After this incubation, the plate was washed again and a solution of poly-streptavidin-HRP (Cat #21140) at a 1:1250 dilution in HRP dilution buffer was added to each well (30 ul/well) and incubated for 30 minutes room temperature. A final wash/aspiration removed the HRP solution and a chemiluminescent substrate was added at 30 ul/well (Cat #1859678 & 1859679). The plate was quickly read using a SpectramaxM5 plate reader with a 50 ms integration time. The dynamic range of the ELISA is from 100-2,000 […] (6.25-125 pM) of human leptin. The assay is applicable to plasma from mice, rats and cynomolgus monkeys.\nBefore the tail vein injection, mouse body weights were recorded and diet weighted, with mice grouped according to their body weights. Mice were prepared by warming them under a heating lamp for ˜2 minutes, with the mice about 12 inches from heat lamp. […]\nOn day 0, animals were weighed and sorted according to average body weight. Mice were dosed, and food intake (FI) was recorded, on each of days 1-7 and days 9, 11, and 16."}, "[3]": {"system": "human leptin", "test": "Human leptin in mouse plasma (ELISA) after subcutaneous injection of encapsulated leptin mRNA", "assay_type": "in vivo", "settings": "hLeptin, 0.2 mpk"}, "[4]": {"system": "Factor VII", "test": "Mouse Factor VII dosing and plasma Factor VII activity assay (FVII siRNA LNP, IV)", "assay_type": "in vivo", "settings": "0.03 mpk, XXX mice", "protocol": "Female CD-1 mice were received from Harlan Labs and maintained on standard lab chow and water ad libitum. The animals weighed approximately 25 gr at time of dosing. Formulated Factor VII siRNA was administered as a single dose intravenously via the lateral tail vein. Approximately 48 hours after injection, the mice were euthanized by CO2 inhalation followed by exsanguination through the vena cava.\nPlasma collected from injected mice was assayed for Factor VII enzyme activity using the Biophen FVII kit from Hyphen Biomedical (catalog number 221304). An assay standard curve was prepared using pooled plasma aliquots from the vehicle control animals. All samples were diluted to fall within the linear range of the standard curve and Factor VII activity relative to control plasma was reported.\nLipid nanoparticles comprising lipid compounds of formula (I) and the FVII siRNA duplex sequence listed above were tested in the Factor VII Activity Assay. The results of this assay are given in Table 34 below as a percent knock down of plasma Factor VII enzyme activity at a dose of 0.3 mg/kg and 0.03 mg/kg."}, "[5]": {"system": "mouse Erythropoietin", "test": "Mouse EPO ELISA after IV injection of encapsulated mEPO mRNA", "assay_type": "in vivo", "settings": "0.2 mpk, ob/ob", "protocol": "A rat anti-mouse Erythropoietin antibody is coated on 384-well white microtiter plates overnight, then blocked for assay. Then, plasma samples are diluted in a casein-based sample diluent and incubated on the plate with buffer controls and mouse EPO standards. The plate is then washed to remove unbound material. A biotinylated rat anti-mouse Erythropoietin antibody is then added to the plate to detect mouse EPO bound by the capture antibody. The plate is washed again and a streptavidin-conjugated horseradish peroxidase reagent is incubated on the plate. A third wash step is performed and a chemiluminescent reagent is added to the plate and immediately read by a capable plate reader using all wavelengths and a 50 millisecond integration time. Unknown samples are interpolated off the mouse EPO standard curve."}, "[6]": {"settings": "RSV-F replicon LNP prepared for 1st IM"}, "[7]": {"settings": "RSV-F replicon LNP prepared for 2nd IM"}},
  "data": [
    {"smiles": "CCCCCCCCCC(=O)OCCC(CC(CCCCCCCC)CCCCCCCC)OC(=O)OCCCN(C)C", "note": "(stereo not shown) [Example 70, 3-(((3-(dimethylamino)propoxy)carbonyl)oxy)-5-octyltridecyl decanoate]", "values": [
      {"measurement": "PDI", "setting": "[1]; [6]", "result": 0.121},
      {"measurement": "Size", "setting": "[1]; [6]", "result": 133.7, "unit": "nm"},
      {"measurement": "PDI", "setting": "[1]; [7]", "result": 0.118},
      {"measurement": "Size", "setting": "[1]; [7]", "result": 141.7, "unit": "nm"}
    ]},
    {"smiles": "CCCCCCCCCCCCC(CCOC(=O)CCCCC(OCCCCCCCC)OCCCCCCCC)OC(=O)OCCCN(CC)CC", "note": "(stereo not shown) [Example 16, 3-(((3-(diethylamino)propoxy)carbonyl)oxy)pentadecyl 6,6-bis(octyloxy)hexanoate]", "values": [
      {"measurement": "Expression of protein following IV injection of encapsulated mRNA", "setting": "[2]; 0.2 mpk, ob/ob", "result": 21.4, "unit": "ng/mL"},
      {"measurement": "Expression of protein following SC injection of encapsulated mRNA", "setting": "[3]; ob/ob", "result": 8.4, "unit": "ng/mL"}
    ]},
    {"smiles": "CCCCCCCCCCCCC(CCOC(=O)CCCCC(OCC(CC)CCCC)OCC(CC)CCCC)OC(=O)OCCCN(CC)CC", "note": "(stereo not shown) [Example 18, 3-(((3-(diethylamino)propoxy)carbonyl)oxy)pentadecyl 6,6-bis((2-ethylhexyl)oxy)hexanoate]", "values": [
      {"measurement": "PDI", "setting": "[1]; [6]", "result": 0.13},
      {"measurement": "Size", "setting": "[1]; [6]", "result": 132.2, "unit": "nm"},
      {"measurement": "PDI", "setting": "[1]; [7]", "result": 0.065},
      {"measurement": "Size", "setting": "[1]; [7]", "result": 139.8, "unit": "nm"}
    ]},
    {"smiles": "CCCCC/C=C\\C/C=C\\CCCCCCCC(=O)OCC(COC(=O)CCCCCCC/C=C\\C/C=C\\CCCCC)OC(=O)CCC(CCCCCCCCCCCC)OC(=O)OCCCN(C)C", "note": "(stereo not shown) [Example 80, (9Z,9′Z,12Z,12′Z)-2-((4-(((3-(dimethylamino)propoxy)carbonyl)oxy)hexadecanoyl)oxy)propane-1,3-diyl bis(octadeca-9,12-dienoate)]", "values": [
      {"measurement": "FVII knock-down following IV injection of encapsulated siRNA", "setting": "[4]", "result": 95, "unit": "%/0.03"}
    ]},
    {"smiles": "CCCCCCCCCCCCC(CCOC(=O)CCCCC(COC(=O)CCCCCCC)COC(=O)CCCCCCC)OC(=O)OCCCN(CC)CC", "note": "(stereo not shown) [Example 1, 2-(10-dodecyl-3-ethyl-8,14-dioxo-7,9,13-trioxa-3-azaoctadecan-18-yl)propane-1,3-diyl dioctanoate]", "values": [
      {"measurement": "Expression of protein following IV injection of encapsulated mRNA", "setting": "[2]; 0.4mpk, C57", "result": 66.3, "unit": "ng/mL"},
      {"measurement": "Expression of protein following IV injection of encapsulated mRNA", "setting": "[5]", "result": 247.6, "unit": "ng/mL"},
      {"measurement": "Expression of protein following SC injection of encapsulated mRNA", "setting": "[3]; C57", "result": 1.2, "unit": "ng/mL"},
      {"measurement": "Expression of protein following SC injection of encapsulated mRNA", "setting": "[3]; ob/ob", "result": 16.2, "unit": "ng/mL"},
      {"measurement": "PDI", "setting": "[1]; [6]", "result": 0.105},
      {"measurement": "Size", "setting": "[1]; [6]", "result": 139.1, "unit": "nm"},
      {"measurement": "PDI", "setting": "[1]; [7]", "result": 0.045},
      {"measurement": "Size", "setting": "[1]; [7]", "result": 131.3, "unit": "nm"}
    ]}
  ]
}
